From ChEMBL document CHEMBL4613212, “Insights of synthetic analogues of anti-leprosy agents” (Bioorg Med Chem, 2019)
Converted amounts (≈) assume the structure as drawn. The source made the active and inactive calls. The rule behind the calls is not given here.

Tests used:
Format in all cases: functional
Enterococcus faecalis [1] = assay: Antimicrobial activity against Enterococcus faecalis ATCC 29212 by broth microdilution assay
Staphylococcus aureus = assay: Antimicrobial activity against Staphylococcus aureus ATCC 25923 by broth microdilution assay
Enterococcus faecalis [2] = assay: Antimicrobial activity against Enterococcus faecalis ATCC 51922 by broth microdilution assay
Listeria monocytogenes = assay: Antimicrobial activity against Listeria monocytogenes ATCC 1911 by broth microdilution assay
Klebsiella pneumoniae = assay: Antimicrobial activity against Klebsiella pneumoniae 700603 by broth microdilution assay
Pseudomonas aeruginosa = assay: Antimicrobial activity against Pseudomonas aeruginosa ATCC 27853 by broth microdilution assay
Escherichia coli [3] = assay: Antimicrobial activity against Escherichia coli ATCC 35218 by broth microdilution assay
Escherichia coli [4] = assay: Antimicrobial activity against Escherichia coli ATCC 25922 by broth microdilution assay
[5] = test system: Mycobacterium tuberculosis; assay: Antitubercular activity against Mycobacterium tuberculosis H37Rv ATCC 27294 incubated for 7 days by microplate alamar blue assay; conditions: H37Rv ATCC 27294, 168 h
Mycobacterium leprae = assay: Anti-leprotic activity against Mycobacterium leprae assessed as maximum bactericidal dilutions
[6] = test system: Mycobacterium tuberculosis; assay: Antitubercular activity against Mycobacterium tuberculosis H37Rv ATCC 27294 assessed as growth inhibition at 6.25 ug/ml by microplate alamar blue assay relative to control
[7] = test system: Mycobacterium tuberculosis; assay: Antitubercular activity against Mycobacterium tuberculosis H37Rv ATCC 27294 assessed as inhibition of [3H]-thymidine incorporation relative to control
[8] = test system: Mycobacterium tuberculosis; assay: Antitubercular activity against Mycobacterium tuberculosis infected in mouse assessed as reduction in microbial load at 2 to 3 mg ip, pretreated for 48 to 72 hrs followed by microbial infection and subsequent compound dosing at 48 to 72 hrs post-infection measured 24 to 32 days post-infection relative to control; set-up: scale not given: the % may be the effect or the level left

Oc1ccc(/C=N/NC(=S)Nc2ccc(C(F)(F)F)cc2)cc1
MIC (Enterococcus faecalis [1]): 400 µg/mL (≈ 1180 µM) | MIC (Staphylococcus aureus): 400 µg/mL (≈ 1180 µM) | MIC (Enterococcus faecalis [2]): 400 µg/mL (≈ 1180 µM) | MIC (Listeria monocytogenes): 400 µg/mL (≈ 1180 µM) | MIC (Klebsiella pneumoniae): 400 µg/mL (≈ 1180 µM) | MIC (Pseudomonas aeruginosa): 400 µg/mL (≈ 1180 µM) | MIC (Escherichia coli [3]): 400 µg/mL (≈ 1180 µM) | MIC (Escherichia coli [4]): 400 µg/mL (≈ 1180 µM) | MIC [5]: 400 µg/mL (≈ 1180 µM)

N#Cc1ccc(/C=N/NC(=S)Nc2ccc(C(F)(F)F)cc2)cc1
MIC (Enterococcus faecalis [1]): 200 µg/mL (≈ 574 µM) | MIC (Staphylococcus aureus): 400 µg/mL (≈ 1150 µM) | MIC (Enterococcus faecalis [2]): 400 µg/mL (≈ 1150 µM) | MIC (Listeria monocytogenes): 400 µg/mL (≈ 1150 µM) | MIC (Klebsiella pneumoniae): 400 µg/mL (≈ 1150 µM) | MIC (Pseudomonas aeruginosa): 400 µg/mL (≈ 1150 µM) | MIC (Escherichia coli [3]): 400 µg/mL (≈ 1150 µM) | MIC (Escherichia coli [4]): 400 µg/mL (≈ 1150 µM) | MIC [5]: 200 µg/mL (≈ 574 µM)

FC(F)(F)c1ccc(NC(=S)N/N=C/c2ccccc2)cc1
MIC (Enterococcus faecalis [1]): 200 µg/mL (≈ 619 µM) | MIC (Staphylococcus aureus): 400 µg/mL (≈ 1240 µM) | MIC (Enterococcus faecalis [2]): 400 µg/mL (≈ 1240 µM) | MIC (Listeria monocytogenes): 400 µg/mL (≈ 1240 µM) | MIC (Klebsiella pneumoniae): 400 µg/mL (≈ 1240 µM) | MIC (Pseudomonas aeruginosa): 400 µg/mL (≈ 1240 µM) | MIC (Escherichia coli [3]): 400 µg/mL (≈ 1240 µM) | MIC (Escherichia coli [4]): 400 µg/mL (≈ 1240 µM) | MIC [5]: 200 µg/mL (≈ 619 µM)

CCCCCCCCCCC(C(=O)O)C1C=CCC1 (configuration not stated)
fold change (FC) (Mycobacterium leprae): 167

c1ccc(-c2ncnc3c2ncn3C2CCOCC2)cc1
inhibition at 6.25 µg/mL [6]: 3% | inhibition (INH) [7]: <10%

FC(F)(F)c1ccc(/C=N/NC(=S)Nc2ccc(C(F)(F)F)cc2)cc1
MIC (Enterococcus faecalis [1]): 100 µg/mL (≈ 256 µM) | MIC (Staphylococcus aureus): 400 µg/mL (≈ 1020 µM) | MIC (Enterococcus faecalis [2]): 400 µg/mL (≈ 1020 µM) | MIC (Listeria monocytogenes): 800 µg/mL (≈ 2040 µM) | MIC (Klebsiella pneumoniae): 400 µg/mL (≈ 1020 µM) | MIC (Pseudomonas aeruginosa): 400 µg/mL (≈ 1020 µM) | MIC (Escherichia coli [3]): 400 µg/mL (≈ 1020 µM) | MIC (Escherichia coli [4]): 400 µg/mL (≈ 1020 µM) | MIC [5]: 200 µg/mL (≈ 511 µM)

c1csc(-c2[nH]cnc3ncnc2-3)c1
inhibition at 6.25 µg/mL [6]: 7% | inhibition (INH) [7]: <10%

Clc1nc(-c2cccs2)c2ncn(C3CCOCC3)c2n1
inhibition at 6.25 µg/mL [6]: 7% | inhibition (INH) [7]: 61%

c1coc(-c2ncnc3c2ncn3C2CCOCC2)c1
inhibition at 6.25 µg/mL [6]: 0% | inhibition (INH) [7]: 15%

CC(C)c1ccc(/C=N/NC(=S)Nc2ccc(C(F)(F)F)cc2)cc1
MIC (Enterococcus faecalis [1]): 400 µg/mL (≈ 1090 µM) | MIC (Staphylococcus aureus): 400 µg/mL (≈ 1090 µM) | MIC (Enterococcus faecalis [2]): 400 µg/mL (≈ 1090 µM) | MIC (Listeria monocytogenes): 400 µg/mL (≈ 1090 µM) | MIC (Klebsiella pneumoniae): 400 µg/mL (≈ 1090 µM) | MIC (Pseudomonas aeruginosa): 400 µg/mL (≈ 1090 µM) | MIC (Escherichia coli [3]): 800 µg/mL (≈ 2190 µM) | MIC (Escherichia coli [4]): 400 µg/mL (≈ 1090 µM) | MIC [5]: 200 µg/mL (≈ 547 µM)

c1ccc(CCn2cnc3c(-c4ccco4)ncnc32)cc1
inhibition at 6.25 µg/mL [6]: 26% | inhibition (INH) [7]: 53%

CCCCCCCCC(C(=O)O)C1CCCCC1 (configuration not stated)
fold change (FC) (Mycobacterium leprae): 110

CCCCCCCC(CCC1CCCCC1)C(=O)O (configuration not stated)
fold change (FC) (Mycobacterium leprae): 160

Cn1cnc2c(-c3ccco3)ncnc21
inhibition at 6.25 µg/mL [6]: 0% | inhibition (INH) [7]: <10%

CCCCCCC(CCC1CCCCC1)C(=O)O (configuration not stated)
fold change (FC) (Mycobacterium leprae): 125

CCCCCCC(CCC1CCCC1)C(=O)O (configuration not stated)
fold change (FC) (Mycobacterium leprae): 320

O=S(=O)(O)c1cc2c(O)c(c1)Cc1cc(S(=O)(=O)O)cc(c1O)Cc1cc(S(=O)(=O)O)cc(c1O)Cc1cc(S(=O)(=O)O)cc(c1O)Cc1cc(S(=O)(=O)O)cc(c1O)Cc1cc(S(=O)(=O)O)cc(c1O)Cc1cc(S(=O)(=O)O)cc(c1O)Cc1cc(S(=O)(=O)O)cc(c1O)C2
Activity [8]: 50 - 80%

CC(C)(C)c1cc2c(O)c(c1)Cc1cc(C(C)(C)C)cc(c1OCCOCCOCCOCCOCCOCCO)Cc1cc(C(C)(C)C)cc(c1O)Cc1cc(C(C)(C)C)cc(c1OCCOCCOCCOCCOCCOCCO)Cc1cc(C(C)(C)C)cc(c1O)Cc1cc(C(C)(C)C)cc(c1OCCOCCOCCOCCOCCOCCO)C2
Activity [8]: 20 - 50%

O=C(N[C@H](CO)[C@H](O)c1ccc([N+](=O)[O-])cc1)C(Cl)Cl [CHLORAMPHENICOL]
MIC (Enterococcus faecalis [1]): 200 µg/mL (≈ 619 µM) | MIC (Staphylococcus aureus): 100 µg/mL (≈ 309 µM) | MIC (Enterococcus faecalis [2]): 200 µg/mL (≈ 619 µM) | MIC (Listeria monocytogenes): 100 µg/mL (≈ 309 µM) | MIC (Klebsiella pneumoniae): 200 µg/mL (≈ 619 µM) | MIC (Pseudomonas aeruginosa): 200 µg/mL (≈ 619 µM) | MIC (Escherichia coli [3]): 100 µg/mL (≈ 309 µM) | MIC (Escherichia coli [4]): 25 µg/mL (≈ 77.4 µM)

Oc1c2cc(-c3ccccc3)cc1Cc1cc(-c3ccccc3)cc(c1O)Cc1cc(-c3ccccc3)cc(c1O)Cc1cc(-c3ccccc3)cc(c1O)Cc1cc(-c3ccccc3)cc(c1O)Cc1cc(-c3ccccc3)cc(c1O)Cc1cc(-c3ccccc3)cc(c1O)C2
Activity [8]: 20 - 50%

Clc1nc(-c2ccco2)c2ncn(C3CCOCC3)c2n1
inhibition at 6.25 µg/mL [6]: 6% | inhibition (INH) [7]: 36%

COCCOCCOCCOc1c2cc(C(C)(C)C)cc1Cc1cc(C(C)(C)C)cc(c1OCCOCCOCCOC)Cc1cc(C(C)(C)C)cc(c1OCCOCCOCCOC)Cc1cc(C(C)(C)C)cc(c1OCCOCCOCCOC)Cc1cc(C(C)(C)C)cc(c1OCCOCCOCCOC)Cc1cc(C(C)(C)C)cc(c1OCCOCCOCCOC)Cc1cc(C(C)(C)C)cc(c1OCCOCCOCCOC)Cc1cc(C(C)(C)C)cc(c1OCCOCCOCCOC)C2
Activity [8]: 80 - 100%

CCCCCCCCC(CCC1CCCC1)C(=O)O (configuration not stated)
fold change (FC) (Mycobacterium leprae): 180

CC(C)(C)c1cc2c(O)c(c1)Cc1cc(C(C)(C)C)cc(c1OCCOCCOCCOCCOCCOCCOCCOCCOCCOCCOCCOCCO)Cc1cc(C(C)(C)C)cc(c1O)Cc1cc(C(C)(C)C)cc(c1OCCOCCOCCOCCOCCOCCOCCOCCOCCOCCOCCOCCO)Cc1cc(C(C)(C)C)cc(c1O)Cc1cc(C(C)(C)C)cc(c1OCCOCCOCCOCCOCCOCCOCCOCCOCCOCCOCCOCCO)Cc1cc(C(C)(C)C)cc(c1O)Cc1cc(C(C)(C)C)cc(c1OCCOCCOCCOCCOCCOCCOCCOCCOCCOCCOCCOCCO)C2
Activity [8]: 20 - 50%

Oc1c2cc(-c3ccccc3)cc1Cc1cc(-c3ccccc3)cc(c1O)Cc1cc(-c3ccccc3)cc(c1O)Cc1cc(-c3ccccc3)cc(c1O)Cc1cc(-c3ccccc3)cc(c1O)Cc1cc(-c3ccccc3)cc(c1O)Cc1cc(-c3ccccc3)cc(c1O)Cc1cc(-c3ccccc3)cc(c1O)C2
Activity [8]: 20 - 50%

CCCCCCCCCCC(C(=O)O)C1CCCCC1 (configuration not stated)
fold change (FC) (Mycobacterium leprae): 180

CCCCCCCCCC(C(=O)O)C1C=CCC1 (configuration not stated)
fold change (FC) (Mycobacterium leprae): 150

CCCCCCCCCC(C(=O)O)C1CCCCC1 (configuration not stated)
fold change (FC) (Mycobacterium leprae): 190

c1csc(-c2ncnc3c2ncn3C2CCOCC2)c1
inhibition at 6.25 µg/mL [6]: 0% | inhibition (INH) [7]: 23%

C=CCn1cnc2c(-c3ccco3)ncnc21
inhibition at 6.25 µg/mL [6]: 7% | inhibition (INH) [7]: 11%

CCCCCCCCCCC(C(=O)O)C1CCCC1 (configuration not stated)
fold change (FC) (Mycobacterium leprae): 143

CC(C)(C)c1cc2c(O)c(c1)Cc1cc(C(C)(C)C)cc(c1O)Cc1cc(C(C)(C)C)cc(c1O)Cc1cc(C(C)(C)C)cc(c1O)Cc1cc(C(C)(C)C)cc(c1O)Cc1cc(C(C)(C)C)cc(c1O)C2
Activity [8]: inactive

CCCCCCCCCCCC(C(=O)O)C1CCCC1 (configuration not stated)
fold change (FC) (Mycobacterium leprae): 153

OCCOCCOCCOCCOCCOCCOCCOCCOCCOCCOCCOCCOc1c2cc(-c3ccccc3)cc1Cc1cc(-c3ccccc3)cc(c1OCCOCCOCCOCCOCCOCCOCCOCCOCCOCCOCCOCCO)Cc1cc(-c3ccccc3)cc(c1OCCOCCOCCOCCOCCOCCOCCOCCOCCOCCOCCOCCO)Cc1cc(-c3ccccc3)cc(c1OCCOCCOCCOCCOCCOCCOCCOCCOCCOCCOCCOCCO)Cc1cc(-c3ccccc3)cc(c1OCCOCCOCCOCCOCCOCCOCCOCCOCCOCCOCCOCCO)Cc1cc(-c3ccccc3)cc(c1OCCOCCOCCOCCOCCOCCOCCOCCOCCOCCOCCOCCO)Cc1cc(-c3ccccc3)cc(c1OCCOCCOCCOCCOCCOCCOCCOCCOCCOCCOCCOCCO)C2
Activity [8]: 80 - 100%

CCCCCCCCC(CCC1CCCCC1)C(=O)O (configuration not stated)
fold change (FC) (Mycobacterium leprae): 220

CCCCCCCCCC(C(=O)O)C1CCCC1 (configuration not stated)
fold change (FC) (Mycobacterium leprae): 111

CCCCCCCC(CCC1CCCC1)C(=O)O (configuration not stated)
fold change (FC) (Mycobacterium leprae): 170

c1coc(-c2ncnc3c2ncn3CC2CCCCC2)c1
inhibition at 6.25 µg/mL [6]: 22% | inhibition (INH) [7]: 60%

CC(C)(C)CC(C)(C)c1cc2c(O)c(c1)Cc1cc(C(C)(C)CC(C)(C)C)cc(c1OCCOCCOCCOCCOCCOCCO)Cc1cc(C(C)(C)CC(C)(C)C)cc(c1O)Cc1cc(C(C)(C)CC(C)(C)C)cc(c1OCCOCCOCCOCCOCCOCCO)Cc1cc(C(C)(C)CC(C)(C)C)cc(c1O)Cc1cc(C(C)(C)CC(C)(C)C)cc(c1OCCOCCOCCOCCOCCOCCO)Cc1cc(C(C)(C)CC(C)(C)C)cc(c1O)Cc1cc(C(C)(C)CC(C)(C)C)cc(c1OCCOCCOCCOCCOCCOCCO)C2
Activity [8]: 20 - 50%

CC(C)(C)c1cc2c(OCCOCCOCCOCCOCCOCCO)c(c1)Cc1cc(C(C)(C)C)cc(c1OCCOCCOCCOCCOCCOCCO)Cc1cc(C(C)(C)C)cc(c1OCCOCCOCCOCCOCCOCCO)Cc1cc(C(C)(C)C)cc(c1OCCOCCOCCOCCOCCOCCO)Cc1cc(C(C)(C)C)cc(c1OCCOCCOCCOCCOCCOCCO)Cc1cc(C(C)(C)C)cc(c1OCCOCCOCCOCCOCCOCCO)Cc1cc(C(C)(C)C)cc(c1OCCOCCOCCOCCOCCOCCO)Cc1cc(C(C)(C)C)cc(c1OCCOCCOCCOCCOCCOCCO)C2
Activity [8]: 80 - 100%
